Converted amounts (≈) assume the structure as drawn.
How the values were obtained:
Acinetobacter baumannii = assay: Antibacterial activity against Acinetobacter baumannii BAA 1605 assessed as reduction in bacterial growth incubated for 16 to 18 hrs by microtiter plate assay; format: functional; conditions: time 16-18 hrs
Mycobacteroides chelonae = assay: Antimycobacterial activity against Mycobacterium chelonae ATCC 6841 assessed as inhibition of bacterial growth after 48 hrs by resazurin microtitre assay; format: functional
Pseudomonas aeruginosa = assay: Antibacterial activity against Pseudomonas aeruginosa ATCC 27853 assessed as reduction in bacterial growth incubated for 16 to 18 hrs by microtiter plate assay; format: functional; conditions: time 16-18 hrs
[1] = test system: Mycolicibacterium fortuitum; assay: Antimycobacterial activity against Mycobacterium fortuitum ATCC 6841 assessed as inhibition of bacterial growth after 48 hrs by resazurin microtitre assay; format: functional
[2] = test system: Mycobacteroides abscessus; assay: Antimycobacterial activity against Mycobacterium abscessus ATCC 19977 assessed as inhibition of bacterial growth after 48 hrs by resazurin microtitre assay; format: functional
Staphylococcus aureus = assay: Antibacterial activity against Staphylococcus aureus ATCC 29213 assessed as reduction in bacterial growth incubated for 16 to 18 hrs by microtiter plate assay; format: functional; conditions: time 16-18 hrs
Klebsiella pneumoniae = assay: Antibacterial activity against Klebsiella pneumoniae BAA 1705 assessed as reduction in bacterial growth incubated for 16 to 18 hrs by microtiter plate assay; format: functional; conditions: time 16-18 hrs
Escherichia coli = assay: Antibacterial activity against Escherichia coli ATCC 25922 assessed as reduction in bacterial growth incubated for 16 to 18 hrs by microtiter plate assay; format: functional; conditions: time 16-18 hrs
[3] = test system: Mycobacterium tuberculosis; assay: Antimycobacterial activity against Mycobacterium tuberculosis H37Rv ATCC 27294 assessed as inhibition of bacterial growth measured after 7 days by resazurin microtitre assay; format: functional; conditions: H37Rv ATCC 27294, 168 h, time 7 day
[4] = Cytotoxicity against African green monkey Vero cells assessed as reduction in cell viability measured after 72 hrs by MTT assay; format: toxicity, cell-based; conditions: chlorocebus sabaeus
[5] = Selectivity index, ratio of CC50 for African green monkey Vero cells to MIC for Mycobacterium tuberculosis H37Rv ATCC 27294; format: toxicity; conditions: read-out: Selectivity Index

| SMILES | MIC (Acinetobacter baumannii) | MIC (Mycobacteroides chelonae) | MIC (Pseudomonas aeruginosa) | MIC [1] | MIC [2] | MIC (Staphylococcus aureus) | MIC (Klebsiella pneumoniae) | MIC (Escherichia coli) | MIC [3] | CC50 at 72 h [4] | selectivity ratio [5] |
| --- | --- | --- | --- | --- | --- | --- | --- | --- | --- | --- | --- |
| O=C(/C=C/c1ccccc1F)c1ccc(Nc2nc3ccccc3o2)cc1 | > 64 µg/mL | > 64 µg/mL | > 64 µg/mL | > 64 µg/mL | > 64 µg/mL | > 64 µg/mL | > 64 µg/mL | > 64 µg/mL | > 64 µg/mL |  |  |
| O=C(/C=C/c1cccc(Cl)c1)c1ccc(Nc2nc3ccccc3o2)cc1 | > 64 µg/mL | > 64 µg/mL | > 64 µg/mL | > 64 µg/mL | > 64 µg/mL | > 64 µg/mL | > 64 µg/mL | > 64 µg/mL | > 64 µg/mL |  |  |
| Cc1ccc2oc(Nc3ccc(C(=O)/C=C/c4ccc([N+](=O)[O-])o4)cc3)nc2c1 | > 64 µg/mL | > 64 µg/mL | > 64 µg/mL | > 64 µg/mL | > 64 µg/mL | 4 µg/mL (≈ 10.3 µM) | > 64 µg/mL | > 64 µg/mL | 0.06 µg/mL (≈ 0.154 µM) | 5 µg/mL (≈ 12.8 µM) | 80 |
| O=C(/C=C/c1ccccc1Br)c1ccc(Nc2nc3ccccc3o2)cc1 | > 64 µg/mL | > 64 µg/mL | > 64 µg/mL | > 64 µg/mL | > 64 µg/mL | > 64 µg/mL | > 64 µg/mL | > 64 µg/mL | > 64 µg/mL |  |  |
| CC(C)(C)c1ccc2oc(Nc3ccc(C(=O)/C=C/c4ccc([N+](=O)[O-])o4)cc3)nc2c1 | > 64 µg/mL | > 64 µg/mL | > 64 µg/mL | > 64 µg/mL | > 64 µg/mL | 8 µg/mL (≈ 18.5 µM) | > 64 µg/mL | > 64 µg/mL | 0.5 µg/mL (≈ 1.16 µM) | 5 µg/mL (≈ 11.6 µM) | < 10 |
| COc1ccc(C(=O)/C=C/c2ccc([N+](=O)[O-])o2)cc1Nc1nc2ccccc2o1 | > 64 µg/mL | > 64 µg/mL | > 64 µg/mL | > 64 µg/mL | > 64 µg/mL | 8 µg/mL (≈ 19.7 µM) | > 64 µg/mL | > 64 µg/mL | 0.25 µg/mL (≈ 0.617 µM) | 5 µg/mL (≈ 12.3 µM) | < 10 |
| COc1cc(/C=C/C(=O)c2ccc(Nc3nc4cc([N+](=O)[O-])ccc4o3)cc2)cc(OC)c1OC | > 64 µg/mL | > 64 µg/mL | > 64 µg/mL | > 64 µg/mL | > 64 µg/mL | > 64 µg/mL | > 64 µg/mL | > 64 µg/mL | 16 µg/mL (≈ 33.7 µM) |  |  |
| CN(C)c1ccc(/C=C/C(=O)c2ccc(Nc3nc4ccccc4o3)cc2)cc1 | > 64 µg/mL | > 64 µg/mL | > 64 µg/mL | > 64 µg/mL | > 64 µg/mL | > 64 µg/mL | > 64 µg/mL | > 64 µg/mL | 64 µg/mL (≈ 167 µM) |  |  |
| COc1cc(/C=C/C(=O)c2ccc(Nc3nc4cc(C(C)(C)C)ccc4o3)cc2)cc(OC)c1OC | > 64 µg/mL | > 64 µg/mL | > 64 µg/mL | > 64 µg/mL | > 64 µg/mL | > 64 µg/mL | > 64 µg/mL | > 64 µg/mL | 32 µg/mL (≈ 65.8 µM) |  |  |
| O=C(/C=C/c1ccc([N+](=O)[O-])o1)c1cccc(Nc2nc3ccccc3o2)c1 | > 64 µg/mL | > 64 µg/mL | > 64 µg/mL | > 64 µg/mL | > 64 µg/mL | 16 µg/mL (≈ 42.6 µM) | > 64 µg/mL | > 64 µg/mL | 0.06 µg/mL (≈ 0.16 µM) | 5 µg/mL (≈ 13.3 µM) | 80 |
| O=C(/C=C/c1ccc(Cl)cc1Cl)c1ccc(Nc2nc3ccccc3o2)cc1 | > 64 µg/mL | > 64 µg/mL | > 64 µg/mL | > 64 µg/mL | > 64 µg/mL | > 64 µg/mL | > 64 µg/mL | > 64 µg/mL | > 64 µg/mL |  |  |
| O=C(/C=C/c1ccccn1)c1ccc(Nc2nc3ccccc3o2)cc1 | > 64 µg/mL | > 64 µg/mL | > 64 µg/mL | > 64 µg/mL | > 64 µg/mL | > 64 µg/mL | > 64 µg/mL | > 64 µg/mL | 4 µg/mL (≈ 11.7 µM) |  |  |
| O=C(/C=C/c1ccc(Cl)cc1)c1ccc(Nc2nc3ccccc3o2)cc1 | > 64 µg/mL | > 64 µg/mL | > 64 µg/mL | > 64 µg/mL | > 64 µg/mL | > 64 µg/mL | > 64 µg/mL | > 64 µg/mL | 64 µg/mL (≈ 171 µM) |  |  |
| O=C(/C=C/c1ccc(Br)cc1)c1ccc(Nc2nc3ccccc3o2)cc1 | > 64 µg/mL | > 64 µg/mL | > 64 µg/mL | > 64 µg/mL | > 64 µg/mL | > 64 µg/mL | > 64 µg/mL | > 64 µg/mL | 64 µg/mL (≈ 153 µM) |  |  |
| COc1cc(/C=C/C(=O)c2cccc(Nc3nc4ccccc4o3)c2)cc(OC)c1OC | > 64 µg/mL | > 64 µg/mL | > 64 µg/mL | > 64 µg/mL | > 64 µg/mL | > 64 µg/mL | > 64 µg/mL | > 64 µg/mL | 8 µg/mL (≈ 18.6 µM) |  |  |
| O=C(O)c1ccc(/C=C/C(=O)c2ccc(Nc3nc4ccccc4o3)cc2)cc1 | > 64 µg/mL | > 64 µg/mL | > 64 µg/mL | > 64 µg/mL | > 64 µg/mL | > 64 µg/mL | > 64 µg/mL | > 64 µg/mL | > 64 µg/mL |  |  |
| COc1cc(OC)c(OC)cc1/C=C/C(=O)c1ccc(Nc2nc3ccccc3o2)cc1 | > 64 µg/mL | > 64 µg/mL | > 64 µg/mL | > 64 µg/mL | > 64 µg/mL | > 64 µg/mL | > 64 µg/mL | > 64 µg/mL | 16 µg/mL (≈ 37.2 µM) |  |  |
| COc1ccc(/C=C/C(=O)c2ccc(Nc3nc4ccccc4o3)cc2)cc1OC | > 64 µg/mL | > 64 µg/mL | > 64 µg/mL | > 64 µg/mL | > 64 µg/mL | > 64 µg/mL | > 64 µg/mL | > 64 µg/mL | 32 µg/mL (≈ 79.9 µM) |  |  |
| O=C(/C=C/c1ccc([N+](=O)[O-])cc1)c1ccc(Nc2nc3ccccc3o2)cc1 | > 64 µg/mL | > 64 µg/mL | > 64 µg/mL | > 64 µg/mL | > 64 µg/mL | > 64 µg/mL | > 64 µg/mL | > 64 µg/mL | 32 µg/mL (≈ 83 µM) |  |  |
| O=C(/C=C/c1ccccc1)c1ccc(Nc2nc3ccccc3o2)cc1 | > 64 µg/mL | > 64 µg/mL | > 64 µg/mL | > 64 µg/mL | > 64 µg/mL | > 64 µg/mL | > 64 µg/mL | > 64 µg/mL | 16 µg/mL (≈ 47 µM) |  |  |
| O=C(/C=C/c1ccccc1Cl)c1ccc(Nc2nc3ccccc3o2)cc1 | > 64 µg/mL | > 64 µg/mL | > 64 µg/mL | > 64 µg/mL | > 64 µg/mL | > 64 µg/mL | > 64 µg/mL | > 64 µg/mL | > 64 µg/mL |  |  |
| O=C(/C=C/c1ccco1)c1ccc(Nc2nc3ccccc3o2)cc1 | > 64 µg/mL | > 64 µg/mL | > 64 µg/mL | > 64 µg/mL | > 64 µg/mL | > 64 µg/mL | > 64 µg/mL | > 64 µg/mL | 32 µg/mL (≈ 96.9 µM) |  |  |
| COc1ccc(OC)c(/C=C/C(=O)c2ccc(Nc3nc4ccccc4o3)cc2)c1 | > 64 µg/mL | > 64 µg/mL | > 64 µg/mL | > 64 µg/mL | > 64 µg/mL | > 64 µg/mL | > 64 µg/mL | > 64 µg/mL | > 64 µg/mL |  |  |

From ChEMBL document CHEMBL5143690, “Identification of nitrofuranylchalcone tethered benzoxazole-2-amines as potent inhibitors of drug resistant Mycobacterium tuberculosis demonstrating bactericidal efficacy” (Bioorg Med Chem, 2022)
